{
  "source": "paper PMC12217109",
  "about": "“Development of novel benzamide class I selective lysine deacetylase inhibitors as potent anticancer agents” (Journal of Enzyme Inhibition and Medicinal Chemistry, 2025)",
  "key": {"UACC-257": {"system": "UACC-257", "assay": "NCI-60 cytotoxicity screen", "assay_type": "cell-based, human", "settings": "Homo sapiens, UACC-257; NCI-60, 48 h, melanoma", "text": "(§1) Compounds 3–7 were submitted to the US National Cancer Institute (NIH, Bethesda, Maryland) for screening against the NCI-60 panel of human cancer cell lines, as per standard protocol."}, "H322M": {"system": "H322M", "assay": "NCI-60 cytotoxicity screen", "assay_type": "cell-based, human", "settings": "Homo sapiens, NCI-H322M; NCI-60, 48 h, NSCLC", "text": "as §1"}, "TK-10": {"system": "TK-10", "assay": "NCI-60 cytotoxicity screen", "assay_type": "cell-based, human", "settings": "Homo sapiens, TK-10; NCI-60, 48 h, renal", "text": "as §1"}, "SR": {"system": "SR", "assay": "NCI-60 cytotoxicity screen", "assay_type": "cell-based", "settings": "Homo sapiens, NCI-60, 48 h, leukaemia", "text": "as §1"}, "RPMI-8226": {"system": "RPMI-8226", "assay": "NCI-60 cytotoxicity screen", "assay_type": "cell-based", "settings": "Homo sapiens, NCI-60, 48 h, leukaemia", "text": "as §1"}, "UO-31": {"system": "UO-31", "assay": "NCI-60 cytotoxicity screen", "assay_type": "cell-based", "settings": "Homo sapiens, NCI-60, 48 h, renal", "text": "as §1"}, "U251": {"system": "U251", "assay": "NCI-60 cytotoxicity screen", "assay_type": "cell-based", "settings": "Homo sapiens, U-251; NCI-60, 48 h, CNS", "text": "as §1"}, "SW620": {"system": "SW620", "assay": "NCI-60 cytotoxicity screen", "assay_type": "cell-based", "settings": "Homo sapiens, SW-620; NCI-60, 48 h, colon", "text": "as §1"}, "CAKI-1": {"system": "CAKI-1", "assay": "NCI-60 cytotoxicity screen", "assay_type": "cell-based", "settings": "Homo sapiens, NCI-60, 48 h, renal", "text": "as §1"}, "HCT116": {"system": "HCT116", "assay": "NCI-60 cytotoxicity screen", "assay_type": "cell-based", "settings": "Homo sapiens, HCT-116; NCI-60, 48 h, colon", "text": "as §1"}, "NCI/ADR-RES": {"system": "NCI/ADR-RES", "assay": "NCI-60 cytotoxicity screen", "assay_type": "cell-based", "settings": "Homo sapiens, NCI-60, 48 h, ovarian", "text": "as §1"}, "H522": {"system": "H522", "assay": "NCI-60 cytotoxicity screen", "assay_type": "cell-based", "settings": "Homo sapiens, NCI-60, 48 h, NSCLC", "text": "as §1"}, "IGROV-1": {"system": "IGROV-1", "assay": "NCI-60 cytotoxicity screen", "assay_type": "cell-based", "settings": "Homo sapiens, NCI-60, 48 h, ovarian", "text": "as §1"}, "MDA-MB-435": {"system": "MDA-MB-435", "assay": "NCI-60 cytotoxicity screen", "assay_type": "cell-based", "settings": "Homo sapiens, NCI-60, 48 h, melanoma", "text": "as §1"}, "DU-145": {"system": "DU-145", "assay": "NCI-60 cytotoxicity screen", "assay_type": "cell-based", "settings": "Homo sapiens, NCI-60, 48 h, prostate", "text": "as §1"}, "HL-60": {"system": "HL-60", "assay": "NCI-60 cytotoxicity screen", "assay_type": "cell-based", "settings": "Homo sapiens, NCI-60, 48 h, leukaemia", "text": "as §1"}, "COLO205": {"system": "COLO205", "assay": "NCI-60 cytotoxicity screen", "assay_type": "cell-based", "settings": "Homo sapiens, COLO 205; NCI-60, 48 h, colon", "text": "as §1"}, "UACC-62": {"system": "UACC-62", "assay": "NCI-60 cytotoxicity screen", "assay_type": "cell-based", "settings": "Homo sapiens, NCI-60, 48 h, melanoma", "text": "as §1"}, "OVCAR-3": {"system": "OVCAR-3", "assay": "NCI-60 cytotoxicity screen", "assay_type": "cell-based", "settings": "Homo sapiens, NCI-60, 48 h, ovarian", "text": "as §1"}, "HS 578 T": {"system": "HS 578 T", "assay": "NCI-60 cytotoxicity screen", "assay_type": "cell-based", "settings": "Homo sapiens, NCI-60, 48 h, breast", "text": "as §1"}, "OVCAR-8": {"system": "OVCAR-8", "assay": "NCI-60 cytotoxicity screen", "assay_type": "cell-based", "settings": "Homo sapiens, NCI-60, 48 h, ovarian", "text": "as §1"}, "SF-268": {"system": "SF-268", "assay": "NCI-60 cytotoxicity screen", "assay_type": "cell-based", "settings": "Homo sapiens, NCI-60, 48 h, CNS", "text": "as §1"}, "HOP-62": {"system": "HOP-62", "assay": "NCI-60 cytotoxicity screen", "assay_type": "cell-based", "settings": "Homo sapiens, NCI-60, 48 h, NSCLC", "text": "as §1"}, "A549": {"system": "A549", "assay": "NCI-60 cytotoxicity screen", "assay_type": "cell-based", "settings": "Homo sapiens, NCI-60, 48 h, NSCLC", "text": "as §1"}, "ACHN": {"system": "ACHN", "assay": "NCI-60 cytotoxicity screen", "assay_type": "cell-based", "settings": "Homo sapiens, NCI-60, 48 h, renal", "text": "as §1"}, "MCF-7": {"system": "MCF-7", "assay": "NCI-60 cytotoxicity screen", "assay_type": "cell-based", "settings": "Homo sapiens, MCF7; NCI-60, 48 h, breast", "text": "as §1"}, "KM12": {"system": "KM12", "assay": "NCI-60 cytotoxicity screen", "assay_type": "cell-based", "settings": "Homo sapiens, NCI-60, 48 h, colon", "text": "as §1"}, "[1]": {"system": "MCF7 breast cancer cell line", "assay": "MTT cellular viability assay, MCF7", "assay_type": "cell-based", "settings": "Homo sapiens, 96 h", "protocol": "The human A2780 ovarian (#93112519) and MCF-7 breast (#86012803) cancer cell lines were obtained from the European Cell Culture Collection (ECACC; Salisbury, UK). The human cardiac ventricular AC16 cell line (#SCC109) was obtained from Merck/Millipore (UK). The A2780 and MCF-7 cell lines were maintained in RPMI-1640 medium and the AC16 cell line was maintained in DMEM/F12 medium. Culture medium of all three cell lines was supplemented with 10% heat-inactivated foetal bovine serum (FBS) and 2 mM L-glutamine, with the cells maintained in a humidified 5% CO2 atmosphere at 37 °C. The media was changed every 72h and the cells passaged via trypsinisation (Trypsin EDTA, 0.25%) before reaching confluency.\nCytotoxicity of each compound against the cell lines was assessed using the MTT assay. Cells were seeded in three replicates into 96-well plates at a density of 2 × 10^3/well for 24h to facilitate cell attachment. Media was replaced with that containing either test compound (0–10µM) for A2780 and MCF7 cell lines, single concentration (10 µM) test compound for AC16 cell line, or drug vehicle (dimethyl sulphoxide; DMSO) and the cells incubated for a further 96 h at 37 °C in a humidified 5% CO2 atmosphere. […] Chemosensitivity was thereafter assessed using a standard 3-[4, 5-dimethylthiazolyl]-2,5-diphenyltetrazolium bromide (MTT) assay, with the optical density determined at 540 nm as an indicator of cellular viability."}, "[2]": {"system": "A2780 ovarian cancer cell line", "assay": "MTT cellular viability assay, A2780", "assay_type": "cell-based", "settings": "Homo sapiens"}, "HeLa nuclear KDACs": {"system": "HeLa nuclear KDACs", "assay": "Fluor-de-Lys HDAC fluorometric activity assay with HeLa nuclear extract", "assay_type": "biochemical", "protocol": "Total zinc-dependent KDAC (classes I, II and IV) activity was measured using the Fluor-de-Lys^TM HDAC fluorometric activity assay kit (BioMol, Exeter, UK), as per manufacturers protocol. Briefly, HeLa nuclear extract, potential inhibitor (5 nM–20 μM) and assay buffer were incubated in a 96-well fluorometric plate at 37 °C for 15 min. Acetylated substrate (100 μM) was added and the mixture incubated at 37 °C for a further 20 min. The developer was added and the mixture incubated at 37 °C for a further 15 min. Fluorescence was measured using a microplate reader (λex = 360 nm, λem = 460 nm). Percentage KDAC activity and thus KDAC inhibition was determined by quantification of fluorescence obtained in the presence versus absence of the respective inhibitor."}},
  "note": "Where two headings read alike, the source gives them in different places.",
  "data": [
    {"smiles": "C=C(CN1CCN(c2cccc(C(F)(F)F)n2)CC1)c1ccc(C(=O)Nc2ccccc2N)cc1", "note": "[Compound 7, N-(2-aminophenyl)-4–(3-(4–(6-(trifluoromethyl)pyridin-2-yl)piperazin-1-yl)prop-1-en-2-yl)benzamide]", "values": [
      {"measurement": "IC50", "setting": "UACC-257", "value": 26.5, "unit": "µM"},
      {"measurement": "IC50", "setting": "H322M", "value": "> 100", "unit": "µM"},
      {"measurement": "IC50", "setting": "TK-10", "value": 16.4, "unit": "µM"},
      {"measurement": "IC50", "setting": "SR", "value": 280, "unit": "nM"},
      {"measurement": "IC50", "setting": "RPMI-8226", "value": 530, "unit": "nM"},
      {"measurement": "IC50", "setting": "UO-31", "value": 2750, "unit": "nM"},
      {"measurement": "IC50", "setting": "U251", "value": 1160, "unit": "nM"},
      {"measurement": "IC50", "setting": "SW620", "value": 530, "unit": "nM"},
      {"measurement": "IC50", "setting": "CAKI-1", "value": 510, "unit": "nM"},
      {"measurement": "IC50", "setting": "HCT116", "value": 540, "unit": "nM"},
      {"measurement": "IC50", "setting": "NCI/ADR-RES", "value": 640, "unit": "nM"},
      {"measurement": "IC50", "setting": "H522", "value": 1110, "unit": "nM"},
      {"measurement": "IC50", "setting": "IGROV-1", "value": 2010, "unit": "nM"},
      {"measurement": "IC50", "setting": "MDA-MB-435", "value": 270, "unit": "nM"},
      {"measurement": "IC50", "setting": "DU-145", "value": 1450, "unit": "nM"},
      {"measurement": "IC50", "setting": "HL-60", "value": 320, "unit": "nM"},
      {"measurement": "IC50", "setting": "COLO205", "value": 3.33, "unit": "µM"},
      {"measurement": "IC50", "setting": "UACC-62", "value": 970, "unit": "nM"},
      {"measurement": "IC50", "setting": "OVCAR-3", "value": 260, "unit": "nM"},
      {"measurement": "IC50", "setting": "HS 578 T", "value": 450, "unit": "nM"},
      {"measurement": "IC50", "setting": "OVCAR-8", "value": 4.25, "unit": "µM"},
      {"measurement": "IC50", "setting": "SF-268", "value": 1120, "unit": "nM"},
      {"measurement": "IC50", "setting": "HOP-62", "value": 2210, "unit": "nM"},
      {"measurement": "IC50", "setting": "A549", "value": 3.32, "unit": "µM"},
      {"measurement": "IC50", "setting": "ACHN", "value": 8.39, "unit": "µM"},
      {"measurement": "IC50", "setting": "MCF-7", "value": 350, "unit": "nM"},
      {"measurement": "IC50", "setting": "KM12", "value": 670, "unit": "nM"},
      {"measurement": "IC50", "setting": "[1]", "value": "800 ± 300", "unit": "nM"},
      {"measurement": "IC50", "setting": "[2]; A2780, MTT, 96 h, read-out: A2780 IC50", "value": "800 ± 100", "unit": "nM"},
      {"measurement": "IC50", "setting": "[2]; listed as A2780* of Table 4, ovarian, values as in Tables 1 and 2 (MTT), read-out: A2780* cytotoxicity IC50", "value": 800, "unit": "nM"},
      {"measurement": "IC50", "setting": "HeLa nuclear KDACs; HeLa nuclear extract, up to 20 µM, read-out: HDAC Inhibition IC50", "value": "> 20", "unit": "µM"},
      {"measurement": "IC20", "setting": "HeLa nuclear KDACs; concentration inhibiting HDAC activity by 20%, read-out: HDAC Inhibition IC20", "value": "800 ± 200", "unit": "nM"}
    ]}
  ]
}
